{
  "source": "patent US12673921B2",
  "about": "“Substituted fluorine-containing imidazole salt compound, preparation method therefor, pharmaceutical composition thereof and use thereof” (XIAMEN VIVOHEALTHS TECHNOLOGY CO., LTD., priority 2019, dated 2026)",
  "key": {"AMPK": {"tested_on": "AMPK", "test": "AMPK activity assay at cell level (western blot of p-AMPKα and p-ACC in MEFs)", "type": "cell-based, mouse", "conditions": "MEF cells, compound 10 nM, 2 h; multiple of the ratio relative to positive control AICAR (3 mM); band brightness by Image J", "protocol": "The ability of compounds to activate AMPK in mouse embryonic fibroblasts (MEFs) was determined, which could be specifically carried out by detecting the phosphorylation level (p-AMPKα) of threonine at the 172nd position of AMPK and the phosphorylation level (p-ACC) of serine at the 79th position of the susbtrate ACC1/ACC2 of AMPK (FIG. 1 and Table I) by western blot.\nThe specific method was as follows: • (1) MEFs with loxP insertion sequences or of wild-type were plated in a 6-well plate and cultured in DMEM containing 10% serum. If a gene needed to be knocked out at this time, when the density of the corresponding MEFs with loxP insertion sequences reached about 30%, an adenovirus capable of expressing cre should be added to the culture well followed by further culture for more than 24 h; • (2) When the cell density was close to 90%, the cells were provided with fresh DMEM, at the same time, a compound (final concentration 10 nM) was added to the cells, followed by culture for 2 h, with an equal volume of DMSO as the negative control, and the cells treated with the addition of AICAR (3 mM) as the positive control; • (3) After sucking up the culture solution, the cells were lysed with 200 μL of a cell lysate (its formulation was given below), then the cells were scraped from the culture dish, ultrasonicated, and subjected to low temperature centrifugation at 20000 g for 10 min; • (4) The supernatant and an equal volume of 2*SDS solution (its formulation was given below) were mixed, and subjected to SDS-PAGE in a concentration of 8%, then the protein was transferred to PVDF membrane; each PVDF membrane was blocked with 25 mL of skim milk for 1 h, and then rinsed with TBST buffer (its formulation was given below) 3 times for 10 min each time; • (5) AMPKα subunit primary antibody (Cell Signaling Technology, #2532), primary antibody of phosphothreonine at the 172nd position of AMPK (Cell Signaling Technology, #2535), ACC primary antibody (Cell Signaling Technology, #3662), or primary antibody of phosphoserine at the 79th position of ACC (Cell Signaling Technology, #3661) was diluted in a ratio of 1:1000 with a primary antibody dilution (its formulation was given below), reacted with the PVDF membrane at room temperature for 12 h, and then rinsed 3 times with TBST buffer; • (6) A 1:1000 dilution of HRP-conjugated goat anti-rabbit secondary antibody (Jackson ImmunoResearch, 111-035-003) was added, reacted at room temperature for 1 h, and then rinsed 3 times with TBST buffer; • (7) The PVDF membrane was dried, reacted in an ECL mixture (WesternBright ECL HRP substrate, Advansta) and subjected to exposure with medical X-ray, developed, finally rinsed, dried, and then scanned to obtain data related to AMPK activation.\nThe formulations of reagents used were: • Cell lysate: 20 mM Tris-base, pH 7.5, 150 mM NaCl, 1 mM EDTA, 1 mM EGTA, 2.5 mM Sodium pyrophosphate, 1 mM β-glycerolphosphate, 1% Triton X-100 (v/v); • 2*SDS solution: 20% Glycerol (v/v), 4% SDS (m/v), 10% β-mecaptoethanol (v/v), 0.01% Bromophenol blue (m/v); • TBST buffer: 4.84% Tris-base (m/v), 8% NaCl (m/v), 0.1% Tween-20 (v/v); • Primary antibody dilution: TBST buffer containing 5% BSA (v/v)."}, "[1]": {"test": "Liver microsome stability test, Beagle dog liver microsome", "type": "in vitro ADME", "conditions": "0.5 mg protein/mL microsome, 1 μM compound, 37° C., NADPH, read-out: DLM 0.5 T1/2 (min), half life in Beagle dog liver microsome", "protocol": "(§1) The experimental steps were as follows: • 1. Preparation of working solution • 1.1 Intermediate solution: 5 μL of a 10 mM stock solution of sample or control was taken out, and diluted with 495 μl of methanol (Conc.: 100 μM, 99% MeOH). • 1.2 Working solution: 50 μL of the intermediate solution was taken out, and diluted with 450 μL of a 100 mM potassium phosphate buffer (Conc.: 10 μM, 9.9% MeOH). • 2. Preparation of NADPH cofactor\n(§2) An appropriate amount of NADPH powder was weighed, and dissolved with a MgCl2 (10 mM) solution. • 3. Liver microsome • 3.1 Liver microsome information\n(§3) • 3.2 Preparation: a microsome working solution with an appropriate concentration was prepared by using a 100 mM potassium phosphate buffer. • 4. Stop solution\n(§4) Glacial acetonitrile, comprising 100 ng/ml Tolbutamide and 100 ng/ml Labetalol as internal standards. • 5. Experimental procedures • 5.1 10 μL of the working solution of sample or control was added per well to all plates (T0, T5, T10, T20, T30, T60, NCF60), except for the blank group; • 5.2 80 μL of the working solution of microsome was added per well to all plates, followed by incubation for 10 min at 37° C.; • 5.3 10 μL of a 100 mM potassium phosphate buffer was added per well to NCF60, followed by incubation at 37° C. and starting timer 1;\n(§5) • 5.4 After preheating, 10 μL of NADPH was added per well to each plate, and reaction was started;\n(§6) Final concentration of each component in the incubation medium:\n(§7) • 5.6 300 μL of the stop solution was added per well to stop the reaction; • 5.7 The system was shaken for about 10 min; • 5.8 The samples were centrifuged (4000 rpm) at 4° C. for 20 min; • 5.9 To 8 new 96-well plates, 300 μL of HPLC water was added per well, then 100 μL of the supernatant was added, mixed and subjected to LC/MS/MS.\n(§8) In the above table, HLM 0.5 T1/2 (min) refers to half life (min) of compounds in human liver microsome, DLM 0.5 T1/2 (min) refers to half life (min) of compounds in Beagle dog liver microsome."}, "[2]": {"test": "Liver microsome stability test, human liver microsome", "type": "in vitro ADME", "conditions": "0.5 mg protein/mL microsome, 1 μM compound, 37° C., NADPH, read-out: HLM 0.5 T1/2 (min), half life in human liver microsome", "protocol": "as §1, §2, §3, §4, §5, §6, §7, §8"}},
  "data": [
    {"smiles": "Cc1n(CCCCCCCCCCCCCCCCF)cc[n+]1Cc1c(Cl)cccc1Cl.Cl", "note": "[IA-1]", "values": [
      {"measurement": "Degree of AMPK activation, p-ACC/ACC", "setting": "AMPK", "result": 0.42},
      {"measurement": "Degree of AMPK activation, p-AMPKα/AMPK", "setting": "AMPK", "result": 1.01},
      {"measurement": "half-life at 1 μM", "setting": "[1]; liver microsomes", "result": 8.5, "unit": "min"},
      {"measurement": "half-life at 1 μM", "setting": "[2]; liver microsomes", "result": 22.3, "unit": "min"}
    ]},
    {"smiles": "Cc1n(CCCCCCCCCCCC(F)(F)C(F)(F)C(F)(F)F)cc[n+]1Cc1c(Cl)cccc1Cl.[Cl-]", "note": "[IB-4]", "values": [
      {"measurement": "Degree of AMPK activation, p-ACC/ACC", "setting": "AMPK", "result": 0.80},
      {"measurement": "Degree of AMPK activation, p-AMPKα/AMPK", "setting": "AMPK", "result": 1.66},
      {"measurement": "half-life at 1 μM", "setting": "[1]; microsomes", "result": "> 145", "unit": "min"},
      {"measurement": "half-life at 1 μM", "setting": "[2]; microsomes", "result": "> 145", "unit": "min"}
    ]},
    {"smiles": "Cc1n(CCCCCCCCCCCC(F)(F)C(F)(F)C(F)(F)C(F)(F)F)cc[n+]1Cc1c(Cl)cccc1Cl.[Cl-]", "note": "[IB-16]", "values": [
      {"measurement": "Degree of AMPK activation, p-ACC/ACC", "setting": "AMPK", "result": 0.77},
      {"measurement": "Degree of AMPK activation, p-AMPKα/AMPK", "setting": "AMPK", "result": 2.28},
      {"measurement": "half-life at 1 μM", "setting": "[1]; microsomes", "result": "> 145", "unit": "min"},
      {"measurement": "half-life at 1 μM", "setting": "[2]; microsomes", "result": "> 145", "unit": "min"}
    ]},
    {"smiles": "Cc1n(CCCCCCCCCCCC(F)(F)C(F)(F)C(F)(F)C(F)(F)C(F)(F)F)cc[n+]1Cc1c(F)cccc1Cl.[Cl-]", "note": "[IB-34]", "values": [
      {"measurement": "Degree of AMPK activation, p-ACC/ACC", "setting": "AMPK", "result": 0.63},
      {"measurement": "Degree of AMPK activation, p-AMPKα/AMPK", "setting": "AMPK", "result": 0.98},
      {"measurement": "half-life at 1 μM", "setting": "[1]; microsomes", "result": 110, "unit": "min"},
      {"measurement": "half-life at 1 μM", "setting": "[2]; microsomes", "result": 192, "unit": "min"}
    ]},
    {"smiles": "Cc1n(CCCCCCCCCCCC(F)(F)C(F)(F)C(F)(F)C(F)(F)C(F)(F)F)cc[n+]1Cc1c(Cl)cccc1Cl.[I-]", "note": "[IB-38]", "values": [
      {"measurement": "Degree of AMPK activation, p-ACC/ACC", "setting": "AMPK", "result": 1.34},
      {"measurement": "Degree of AMPK activation, p-AMPKα/AMPK", "setting": "AMPK", "result": 2.06},
      {"measurement": "half-life at 1 μM", "setting": "[1]; microsomes", "result": "> 145", "unit": "min"},
      {"measurement": "half-life at 1 μM", "setting": "[2]; microsomes", "result": "> 145", "unit": "min"}
    ]},
    {"smiles": "CC(C)c1n(CCCCCCCCCCCC(F)(F)C(F)(F)C(F)(F)C(F)(F)C(F)(F)F)cc[n+]1Cc1c(Cl)cccc1Cl.[Cl-]", "note": "[IB-41]", "values": [
      {"measurement": "Degree of AMPK activation, p-ACC/ACC", "setting": "AMPK", "result": 1.49},
      {"measurement": "Degree of AMPK activation, p-AMPKα/AMPK", "setting": "AMPK", "result": 0.94},
      {"measurement": "half-life at 1 μM", "setting": "[1]; microsomes", "result": 79.7, "unit": "min"},
      {"measurement": "half-life at 1 μM", "setting": "[2]; microsomes", "result": 85.3, "unit": "min"}
    ]},
    {"smiles": "FC(F)(F)C(F)(F)C(F)(F)C(F)(F)C(F)(F)CCCCCCCCCCCn1cc[n+](Cc2c(Cl)cccc2Cl)c1C1CC1.[Cl-]", "note": "[IB-44]", "values": [
      {"measurement": "Degree of AMPK activation, p-ACC/ACC", "setting": "AMPK", "result": 1.56},
      {"measurement": "Degree of AMPK activation, p-AMPKα/AMPK", "setting": "AMPK", "result": 0.59},
      {"measurement": "half-life at 1 μM", "setting": "[1]; microsomes", "result": 127, "unit": "min"},
      {"measurement": "half-life at 1 μM", "setting": "[2]; microsomes", "result": 93, "unit": "min"}
    ]},
    {"smiles": "Cc1n(CCCCCCCCCCCC(F)(F)C(F)(F)C(F)(F)C(F)(F)C(F)(F)C(F)(F)F)cc[n+]1Cc1c(Cl)cccc1Cl.[Cl-]", "note": "[IB-50]", "values": [
      {"measurement": "Degree of AMPK activation, p-ACC/ACC", "setting": "AMPK", "result": 1.09},
      {"measurement": "Degree of AMPK activation, p-AMPKα/AMPK", "setting": "AMPK", "result": 0.65},
      {"measurement": "half-life at 1 μM", "setting": "[1]; microsomes", "result": 122, "unit": "min"},
      {"measurement": "half-life at 1 μM", "setting": "[2]; microsomes", "result": "> 145", "unit": "min"}
    ]}
  ]
}
